This note sets out measurements from PubChem BioAssay AID330 (DTP/NCI, 2004).

Several values for one entry are separate records, joined by “and”; a condition that tells them apart may be missing. Equal entries are not always repeated. Toxic doses and inconclusive results are not listed. Square brackets hold non-standard residues; d marks the D form. Peptide text beside a SMILES is read from it. * marks the point of attachment. ξ: configuration not given here. Cbz = O=C(OCc1ccccc1)*; ξI = CCC(C)C(N)C(=O)O

This test relates to P388 leukemia ip, CD2F1 mice, survival T/C. As to the kind of experiment: NCI In Vivo Anticancer Drug Screen. Data for tumor model P388 Leukemia (intraperitoneal) in CD2F1 (CDF1) mice. The conditions noted are these: endpoint: median survival time, higher = longer survival. In a few lines: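 Mice carrying the transplanted tumor received test compound or vehicle. Survival was recorded in each group, and the value is the treated-group measurement divided by that of the vehicle-treated control group.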

Where [1] appears, read: dose: 50.0 mg/kg/injection, schedule: Q01DX005 (ip), vehicle: Klucel (hydroxypropylcellulose) (HPC).
Where [2] appears, read: dose: 100.0 mg/kg/injection, schedule: Q01DX005 (ip), vehicle: Klucel (hydroxypropylcellulose) (HPC).
Where [3] appears, read: dose: 200.0 mg/kg/injection, schedule: Q01DX005 (ip), vehicle: Klucel (hydroxypropylcellulose) (HPC).
Setting [4] is: dose: 50.0 mg/kg/injection, schedule: Q01DX009 (ip), vehicle: saline with Tween-80.
The mark [5] stands for this setting: dose: 100.0 mg/kg/injection, schedule: Q01DX009 (ip), vehicle: saline with Tween-80.
Setting [6] is: dose: 200.0 mg/kg/injection, schedule: Q01DX009 (ip), vehicle: saline with Tween-80.
Setting [7] is: dose: 50.0 mg/kg/injection, schedule: Q01DX005 (ip), vehicle: saline with Tween-80.
The mark [8] stands for this setting: dose: 100.0 mg/kg/injection, schedule: Q01DX005 (ip), vehicle: saline with Tween-80.
Setting [9] is: dose: 200.0 mg/kg/injection, schedule: Q01DX005 (ip), vehicle: saline with Tween-80.
Setting [10] is: dose: 60.0 mg/kg/injection, schedule: Q01DX005 (ip), vehicle: saline.
Setting [11] is: dose: 120.0 mg/kg/injection, schedule: Q01DX005 (ip), vehicle: saline.
The mark [12] stands for this setting: dose: 240.0 mg/kg/injection, schedule: Q01DX005 (ip), vehicle: saline.
Setting [13] is: dose: 50.0 mg/kg/injection, schedule: Q01DX009 (ip), vehicle: saline.
[14] abbreviates: dose: 100.0 mg/kg/injection, schedule: Q01DX009 (ip), vehicle: saline.
Setting [15] is: dose: 200.0 mg/kg/injection, schedule: Q01DX009 (ip), vehicle: saline.
The mark [16] stands for this setting: dose: 60.0 mg/kg/injection, schedule: Q01DX005 (ip), vehicle: saline with Tween-80.
Where [17] appears, read: dose: 120.0 mg/kg/injection, schedule: Q01DX005 (ip), vehicle: saline with Tween-80.

Consider `CCC(C)C(NC(=O)OCc1ccccc1)C(=O)NCC(=O)O` (configuration not stated) (Cbz-[ξI]-Gly-OH), for which the T/C runs as follows: under setting [1], 97 % of control; under setting [2], 97 % of control; under setting [3], 90 % of control.

For the compound `O=NNc1ccccn1`, the T/C by setting is: (dose: 0.78 mg/kg/injection, schedule: Q01DX009 (ip), vehicle: saline) 106 % of control; (dose: 1.5 mg/kg/injection, schedule: Q01DX009 (ip), vehicle: saline) 100 % of control; (dose: 1.5 mg/kg/injection, schedule: Q01DX009 (ip), vehicle: water) 103 % of control; (dose: 1.56 mg/kg/injection, schedule: Q01DX005 (ip), vehicle: water) 103 % of control and 106 % of control and 112 % of control; (dose: 1.56 mg/kg/injection, schedule: Q01DX009 (ip), vehicle: saline + alcohol) 108 % of control; (dose: 1.59 mg/kg/injection, schedule: Q01DX009 (ip), vehicle: water) 119 % of control. The T/C runs as follows: (dose: 3.0 mg/kg/injection, schedule: Q01DX009 (ip), vehicle: saline) 118 % of control; (dose: 3.0 mg/kg/injection, schedule: Q01DX009 (ip), vehicle: water) 121 % of control; (dose: 3.12 mg/kg/injection, schedule: Q01DX009 (ip), vehicle: saline + alcohol) 123 % of control; (dose: 12.0 mg/kg/injection, schedule: Q01DX009 (ip), vehicle: water) 151 % of control and 163 % of control; (dose: 25.0 mg/kg/injection, schedule: Q01DX009 (ip), vehicle: saline + alcohol) 175 % of control.

On to `O=C1c2ccccc2C(=O)c2c(NCCN3CCOCC3)ccc(NCCN3CCOCC3)c21`, for which the T/C is 108 % of control under setting [4]; 109 % of control under setting [5]; 115 % of control under setting [6]; 117 % of control (dose: 400.0 mg/kg/injection, schedule: Q01DX009 (ip), vehicle: saline with Tween-80).

Regarding `CCN(CC)C1CC(C)(O)Cc2cc3c(c(O)c21)C(=O)c1c(O)cc2c(c1C3=O)OC1OC2(C)C(O)C(N(C)C)C1O` (configuration not stated), where the note is “dose: 50.0 mg/kg/injection, schedule: Q01DX009 (ip), vehicle: other”, the T/C was 93 % of control.

Consider `Cc1ccc(S(=O)(=O)N/N=C2/C=CC3(CC=CCC3)CC2)cc1` (configuration not stated), for which the T/C is, setting by setting: (dose: 50.0 mg/kg/injection, schedule: Q01DX009 (ip), vehicle: Klucel (hydroxypropylcellulose) (HPC)) 109 % of control; (dose: 100.0 mg/kg/injection, schedule: Q01DX009 (ip), vehicle: Klucel (hydroxypropylcellulose) (HPC)) 100 % of control; (dose: 200.0 mg/kg/injection, schedule: Q01DX009 (ip), vehicle: Klucel (hydroxypropylcellulose) (HPC)) 100 % of control.

`COc1cccc2c1C(=O)c1c(O)c3c(c(O)c1C2=O)CC(O)(C(C)=O)CC3OC1CC(N)C(C(C)O)O1` (configuration not stated): the T/C runs as follows: (dose: 2.25 mg/kg/injection, schedule: Q04DX003 (ip), vehicle: distilled water + Tween-80) 100 % of control; (dose: 4.5 mg/kg/injection, schedule: Q04DX003 (ip), vehicle: distilled water + Tween-80) 99 % of control; (dose: 9.0 mg/kg/injection, schedule: Q04DX003 (ip), vehicle: distilled water + Tween-80) 110 % of control; (dose: 18.0 mg/kg/injection, schedule: Q04DX003 (ip), vehicle: distilled water + Tween-80) 101 % of control; (dose: 36.0 mg/kg/injection, schedule: Q04DX003 (ip), vehicle: distilled water + Tween-80) 110 % of control.

As to `COc1cc2c(cc1OC)[C@H](c1cc(Br)c(O)c(OC)c1)[C@H]1C(=O)OCC1C2` (some centres not stated), the T/C was 87 % of control (dose: 12.5 mg/kg/injection, schedule: Q01DX005 (ip), vehicle: saline with Tween-80); 92 % of control (dose: 25.0 mg/kg/injection, schedule: Q01DX005 (ip), vehicle: saline with Tween-80); 92 % of control under setting [7]; 88 % of control under setting [8]; 89 % of control under setting [9].

For `COc1ccc2nc(Cl)c(CO)c(CO)c2c1`, the T/C reads like this: under setting [1], 102 % of control; under setting [2], 95 % of control; under setting [3], 105 % of control.

Consider `CCN(CC)C1=CC(=O)OC1OC` (configuration not stated), for which the T/C runs as follows: under setting [10], 95 % of control; under setting [11], 94 % of control.

In the case of `Nc1nc(N)nc(N/C=C/C(=O)O)n1`, the T/C (dose: 50.0 mg/kg/injection, schedule: Q01DX005 (ip), vehicle: water) was 99 % of control; the T/C (dose: 100.0 mg/kg/injection, schedule: Q01DX005 (ip), vehicle: water) was 105 % of control; the T/C (dose: 200.0 mg/kg/injection, schedule: Q01DX005 (ip), vehicle: water) was 106 % of control.

As for `Cc1cccc(/C=N/N2CCN(C(c3ccccc3)c3ccccc3)CC2)n1`, the T/C reads like this: (dose: 100.0 mg/kg/injection, schedule: Q01DX001 (ip), vehicle: Klucel (hydroxypropylcellulose) (HPC)) 100 % of control; (dose: 200.0 mg/kg/injection, schedule: Q01DX001 (ip), vehicle: Klucel (hydroxypropylcellulose) (HPC)) 97 % of control; (dose: 400.0 mg/kg/injection, schedule: Q01DX001 (ip), vehicle: Klucel (hydroxypropylcellulose) (HPC)) 100 % of control.

Regarding `Oc1c(C(c2ccccc2)N2CCCCC2)ccc2ccccc12` (configuration not stated), the T/C reads like this: under setting [4], 110 % of control; under setting [5], 105 % of control; under setting [6], 90 % of control.

On to `CCC(C)NCC/C(=C\[Si](C)(C)C)c1ccccc1` (configuration not stated), for which the T/C was 100 % of control (dose: 100.0 mg/kg/injection, schedule: Q01DX001 (ip), vehicle: saline with Tween-80) and 106 % of control (dose: 200.0 mg/kg/injection, schedule: Q01DX001 (ip), vehicle: saline with Tween-80).

Turning to `O=C(NCCN1CCOCC1)Nc1ccc2c(c1)OCCOCCOCCOCCO2`, the T/C is 105 % of control under setting [10], 102 % of control under setting [11] and 99 % of control under setting [12].

With `CC1/C(=N/Nc2ccc([N+](=O)[O-])cc2)CC2C3(C)CCC2(C(C)C(=O)O)C(=O)C13` (configuration not stated), the T/C runs as follows: (dose: 25.0 mg/kg/injection, schedule: Q04DX003 (ip), vehicle: Klucel (hydroxypropylcellulose) (HPC)) 92 % of control; (dose: 50.0 mg/kg/injection, schedule: Q04DX003 (ip), vehicle: Klucel (hydroxypropylcellulose) (HPC)) 94 % of control; (dose: 100.0 mg/kg/injection, schedule: Q04DX003 (ip), vehicle: Klucel (hydroxypropylcellulose) (HPC)) 88 % of control and 94 % of control; (dose: 400.0 mg/kg/injection, schedule: Q04DX003 (ip), vehicle: Klucel (hydroxypropylcellulose) (HPC)) 90 % of control.

`Cc1ccc2c(c1)C(=O)C(CN1CCN(C)CC1)CO2` (configuration not stated): the T/C by setting is: under setting [13], 106 % of control; under setting [14], 109 % of control; under setting [15], 99 % of control.

As for `CC(Cl)(C=O)c1ccccc1` (configuration not stated), the T/C was 100 % of control under setting [16] and 97 % of control under setting [17].

With `COC(C(=O)CN(C)C)(c1ccccc1)c1ccccc1`, the T/C was 107 % of control under setting [10], 99 % of control under setting [11] and 105 % of control under setting [12].

As for `CN(C)c1ccc(/C=C(\C#N)C(N)=S)cc1`, the T/C by setting is: under setting [13], 100 % of control; under setting [14], 100 % of control; under setting [15], 106 % of control.

For the compound `c1ccc(C2Oc3ccccc3-c3nc4ccccc4cc32)cc1` (configuration not stated), the T/C under setting [7] is 106 % of control, the T/C under setting [8] is 111 % of control and the T/C under setting [9] was 100 % of control.

On to `CC(=O)Oc1cc2c(cc1C(Nc1ccccn1)c1ccc3c(c1)OCO3)OCO2` (configuration not stated), for which the T/C reads like this: under setting [16], 98 % of control; under setting [17], 92 % of control; (dose: 240.0 mg/kg/injection, schedule: Q01DX005 (ip), vehicle: saline with Tween-80) 97 % of control.
